Holding throughout (assay type): cell-based
One assay concerns MV-4-11 (AML) cells. As to the kind of experiment: Cell proliferation and growth inhibition assay (CCK-8) in MV-4-11. Conditions: Homo sapiens, MV4-11; MV-4-11 cells, treated with test compounds for 72 hrs, CCK-8 viability. As for the experimental part: (§1) MV-4-11 and H1975 cells were obtained from the American Type Culture Collection and KM12-luc cells were obtained from JCRB Cell Bank. All cell lines were maintained at 37° C. with 5% C02, in media supplemented with 10% fetal bovine serum and penicillin (100 units/mL) and streptomycin (100 μg/mL). MV-4-11 cells were maintained in Iscove's Modified Dubecco's Medium, H1975 cells were cultured with RPMI 1640 media, and KM12-luc cells were maintained in Dulbecco's Modification of Eagle's Medium. CCK-8 reagent was obtained from Yeasen.
(§2) Cell proliferation was assessed by CCK-8 assay (Yeasen) per the manufacturer's instructions. The MV-4-11 (AML), H1975, and KM12-luc cells were seeded at 30,000, 3,000 and 2,500 cells per well onto 96-well plates, and after a 24 h incubation, the cells were treated with test compounds for 72 hrs. Cell viability was assayed by incubating the cells with CCK-8 reagent for 1-4 hrs. Absorbance was measured at OD450 using the Beckman DTX880. The data was calculated using GraphPad Prism version 6.01. The IC50 values were fitted using a non-linear regression model with a sigmoidal dose response.

A further assay concerns H1975 cells. Nature of the assay: Cell proliferation and growth inhibition assay (CCK-8) in H1975. Conditions: treated with test compounds for 72 hrs, CCK-8 viability, read-out: EGFR IC50 in H1975. As for the experimental part:
as §1, §2

Another assay deals with KM12-luc cells. Nature of the assay: Cell proliferation and growth inhibition assay (CCK-8) in KM12-luc. To be noted: KM12-luc cells, treated with test compounds for 72 hrs, CCK-8 viability, read-out: NTRK IC50 in KM12-luc. In outline:
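IC50 values were fitted by sigmoidal dose-response non-linear regression of CCK-8 OD450 absorbance after 1-4 hrs with reagent. Culture media were IMDM for MV-4-11, RPMI 1640 for H1975 and DMEM for KM12-luc, each with 10% FBS at 37 °C, 5% CO2.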

Read-outs that look alike come from different tables or passages of the source.

A word on the IC50: it is the concentration needed to halve the response being measured.

`COc1cccc2c(-c3nc(Nc4ccc(N5CC[C@@H](N(C)C)C5)c(N)c4)ncc3C(F)(F)F)c[nH]c12` [Compound R-383, (R)-4-(3-(dimethylamino)pyrrolidin-1-yl)-N^1-(4-(7-methoxy-1H-indol-3-yl)-5-(trifluoromethyl)pyrimidin-2-yl)benzene-1,3-diamine]: the IC50 was 4.7 nM with MV-4-11 (AML) cells; 129 nM in the assay with H1975 cells (Homo sapiens, NCI-H1975, 72 h); 8.5 nM with KM12-luc cells (KM12-Luc, 72 h).

With `COc1cccc2c(-c3nc(Nc4ccc(N5CC[C@@H](N(C)C)C5)c(NC(C)=O)c4)ncc3Cl)cn(C)c12` [Compound R-435, (R)—N-(5-(5-chloro-4-(7-methoxy-1-methyl-1H-indol-3-yl)pyrimidin-2-ylamino)-2-(3-(dimethylamino)pyrrolidin-1-yl)phenyl)acetamide], the IC50 with H1975 cells (Homo sapiens, NCI-H1975, 72 h) came to 1040 nM; in the assay with KM12-luc cells (KM12-Luc, 72 h), 31.9 nM.

Consider `COc1cccc2c(-c3nc(Nc4cc(NC(C)=O)c(N(C)CCN(C)C)cc4F)ncc3C(F)(F)F)c[nH]c12` [Compound 378, N-(2-((2-(dimethylamino)ethyl)(methyl)amino)-4-fluoro-5-((4-(7-methoxy-1H-indol-3-yl)-5-(trifluoromethyl)pyrimidin-2-yl)amino)phenyl)acetamide], for which the IC50 is 26.1 nM in the assay on H1975 cells (Homo sapiens, NCI-H1975, 72 h) and 43.4 nM in the assay on KM12-luc cells (KM12-Luc, 72 h).

As to `COc1cccc2c(-c3nc(Nc4ccc(N5CC[C@H](N(C)C)C5)c(NC(C)=O)c4)ncc3Cl)cn(C)c12` [Compound S-435, (S)—N-(5-(5-chloro-4-(7-methoxy-1-methyl-1H-indol-3-yl)pyrimidin-2-ylamino)-2-(3-(dimethylamino)pyrrolidin-1-yl)phenyl)acetamide], the IC50 in the assay on H1975 cells (Homo sapiens, NCI-H1975, 72 h) is 1560 nM; in the assay on KM12-luc cells (KM12-Luc, 72 h), 48.1 nM.

With `CC(=O)Nc1cc(Nc2ncc(Cl)c(-c3c[nH]c4ccccc34)n2)cc(F)c1N1CCC(N(C)C)C1` (stereo not shown) [Compound 392, N-(5-((5-chloro-4-(1H-indol-3-yl)pyrimidin-2-yl)amino)-2-(3-(dimethylamino)pyrrolidin-1-yl)-3-fluorophenyl)acetamide], the 50% inhibitory concentration (IC50) with H1975 cells (Homo sapiens, NCI-H1975, 72 h) came to 862 nM; in the assay with KM12-luc cells (KM12-Luc, 72 h) it was 18.1 nM.

Turning to `CC(=O)Nc1cc(Nc2ncc(C(F)(F)F)c(-c3cn(C)c4ccccc34)n2)ccc1N(C)CCN(C)C` [Compound 305, N-(2-((2-(dimethylamino)ethyl)(methyl)amino)-5-((4-(1-methyl-1H-indol-3-yl)-5-(trifluoromethyl)pyrimidin-2-yl)amino)phenyl)acetamide], the figures for the 50% inhibitory concentration (IC50) in the assay on H1975 cells and with KM12-luc cells were 653 nM and 28.9 nM, respectively.

As for `CCC(=O)Nc1cc(Nc2nc(-c3cn(C)c4ccccc34)c3cc[nH]c3n2)ccc1N(CC)CCN(C)C` [Compound 212b, N-(2-((2-(dimethylamino)ethyl)(ethyl)amino)-5-((4-(1-methyl-1H-indol-3-yl)-7H-pyrrolo[2,3-d]pyrimidin-2-yl)amino)phenyl)propionamide], the 50% inhibitory concentration (IC50) with H1975 cells (Homo sapiens, NCI-H1975, 72 h) is 1660 nM; in the assay on KM12-luc cells (KM12-Luc, 72 h), 37 nM.

Regarding `COc1cnc(Nc2ccc(N3CC[C@H](N(C)C)C3)c(NC(C)=O)c2)nc1-c1c[nH]c2c(F)cccc12` [Compound S-280, (S)—N-(2-(3-(dimethylamino)pyrrolidin-1-yl)-5-((4-(7-fluoro-1H-indol-3-yl)-5-methoxypyrimidin-2-yl)amino)phenyl)acetamide], the IC50 in the assay on H1975 cells (Homo sapiens, NCI-H1975, 72 h) was found to be 1250 nM; with KM12-luc cells (KM12-Luc, 72 h), 14.6 nM.

For the compound `COc1cccc2c(-c3nc(Nc4ccc(N5CC[C@H](N(C)C)C5)c(NC(C)=O)c4)ncc3C(F)(F)F)cn(C)c12` [Compound S-389, (S)—N-(2-(3-(dimethylamino)pyrrolidin-1-yl)-5-((4-(7-methoxy-1-methyl-1H-indol-3-yl)-5-(trifluoromethyl)pyrimidin-2-yl)amino)phenyl)acetamide], the IC50 with H1975 cells (Homo sapiens, NCI-H1975, 72 h) stood at 898 nM; in the assay on KM12-luc cells (KM12-Luc, 72 h), 23.5 nM.

Regarding `CCN(CCN(C)C)c1ccc(Nc2ncc(Cl)c(-c3c[nH]c4ccccc34)n2)cc1NC(C)=O` [Compound 442, N-(5-((5-chloro-4-(1H-indol-3-yl)pyrimidin-2-yl)amino)-2-((2-(dimethylamino)ethyl)(ethyl)amino)phenyl)acetamide], the IC50 with H1975 cells (Homo sapiens, NCI-H1975, 72 h) worked out at 328 nM; in the assay with KM12-luc cells (KM12-Luc, 72 h) it was 6.4 nM.

Consider `CC(=O)Nc1cc(Nc2ncc(C(F)(F)F)c(-c3cn(C)c4c(C)cccc34)n2)ccc1N1CC[C@@H](N(C)C)C1` [Compound R-373, (R)—N-(5-((4-(1,7-dimethyl-1H-indol-3-yl)-5-(trifluoromethyl)pyrimidin-2-yl)amino)-2-(3-(dimethylamino)pyrrolidin-1-yl)phenyl)acetamide], for which the IC50 in the assay with H1975 cells (Homo sapiens, NCI-H1975, 72 h) was 923 nM; in the assay on KM12-luc cells (KM12-Luc, 72 h) it was 22.8 nM.

For `CC(=O)Nc1cc(Nc2ncc(C(F)(F)F)c(-c3c[nH]c4c(C)cccc34)n2)c(F)cc1N(C)CCN(C)C` [Compound 362, N-(2-((2-(dimethylamino)ethyl)(methyl)amino)-4-fluoro-5-((4-(7-methyl-1H-indol-3-yl)-5-(trifluoromethyl)pyrimidin-2-yl)amino)phenyl)acetamide], the half-maximal inhibitory concentration (IC50) in the assay with H1975 cells (Homo sapiens, NCI-H1975, 72 h) came to 18.6 nM; in the assay with KM12-luc cells (KM12-Luc, 72 h) it was 32.6 nM.

As to `CC(=O)Nc1cc(Nc2ncc(C(F)(F)F)c(-c3cn(C)c4c(C)cccc34)n2)ccc1N(C)CCN(C)C` [Compound 368, N-(5-((4-(1,7-dimethyl-1H-indol-3-yl)-5-(trifluoromethyl)pyrimidin-2-yl)amino)-2-((2-(dimethylamino)ethyl)(methyl)amino)phenyl)acetamide], the IC50 in the assay on H1975 cells (Homo sapiens, NCI-H1975, 72 h) is 356 nM; in the assay with KM12-luc cells (KM12-Luc, 72 h) it was 22.9 nM.

`CCC(=O)Nc1cccc(Nc2ncc(F)c(Nc3ccc(N4CCN(C(C)=O)CC4)cc3OC)n2)c1` [Compound 156, N-(3-((4-((4-(4-acetylpiperazin-1-yl)-2-methoxyphenyl)amino)-5-fluoropyrimidin-2-yl)amino)phenyl)propionamide]: the IC50 is 2800 nM in the assay on H1975 cells (Homo sapiens, NCI-H1975, 72 h) and 370 nM in the assay on KM12-luc cells (KM12-Luc, 72 h).

Regarding `CC(=O)Nc1cc(Nc2ncc(Cl)c(-c3cnc(C(C)C)n3C)n2)ccc1N(C)CCN(C)C` [Compound 452, N-(5-((5-chloro-4-(2-isopropyl-1-methyl-1H-imidazol-5-yl)pyrimidin-2-yl)amino)-2-((2-(dimethylamino)ethyl)(methyl)amino)phenyl)acetamide], the concentration for half-maximal inhibition (IC50) in the assay with MV-4-11 (AML) cells was > 1000 nM; with H1975 cells (Homo sapiens, NCI-H1975, 72 h), > 20000 nM.

Turning to `CCC(=O)Nc1cc(Nc2ncc(C(F)(F)F)c(-c3c[nH]c4ccccc34)n2)ccc1N(C)CCN(C)C` [Compound 298, N-(5-((4-(1H-indol-3-yl)-5-(trifluoromethyl)pyrimidin-2-yl)amino)-2-((2-(dimethylamino)ethyl)(methyl)amino)phenyl)propionamide], the IC50 in the assay with H1975 cells (Homo sapiens, NCI-H1975, 72 h) came to 289 nM; with KM12-luc cells (KM12-Luc, 72 h) it was 44 nM.

Take `CC(=O)Nc1cc(Nc2ncc(Cl)c(-c3cn(C)c4ccccc34)n2)ccc1NCCN(C)C` [Compound 400a, N-(5-((5-chloro-4-(1-methyl-1H-indol-3-yl)pyrimidin-2-yl)amino)-2-((2-(dimethylamino)ethyl)amino)phenyl)acetamide]: the 50% inhibitory concentration (IC50) with H1975 cells (Homo sapiens, NCI-H1975, 72 h) came out at 1010 nM; in the assay on KM12-luc cells (KM12-Luc, 72 h) it was 42 nM.

For the compound `CC(=O)Nc1cc(Nc2ncc(Cl)c(-c3c[nH]c4c(C)cccc34)n2)ccc1N(C)CCN(C)C` [Compound 423, N-(5-((5-chloro-4-(7-methyl-1H-indol-3-yl)pyrimidin-2-yl)amino)-2-((2-(dimethylamino)ethyl)(methyl)amino)phenyl)acetamide], the IC50 was found to be 66.5 nM in the assay on H1975 cells (Homo sapiens, NCI-H1975, 72 h) and 4.7 nM in the assay on KM12-luc cells (KM12-Luc, 72 h).

As to `COc1cccc2c(-c3nc(Nc4ccc(N5CC[C@@H](N(C)C)C5)c(NC(C)=O)c4)ncc3C(F)(F)F)cn(C)c12` [Compound R-389, (R)—N-(2-(3-(dimethylamino)pyrrolidin-1-yl)-5-((4-(7-methoxy-1-methyl-1H-indol-3-yl)-5-(trifluoromethyl)pyrimidin-2-yl)amino)phenyl)acetamide], the IC50 in the assay on H1975 cells (Homo sapiens, NCI-H1975, 72 h) came out at 940 nM; in the assay with KM12-luc cells (KM12-Luc, 72 h), 24.8 nM.

For the compound `CC(=O)Nc1cc(Nc2ncc(C(F)(F)F)c(-c3cn(C)c4c(C)cccc34)n2)ccc1N1CC[C@H](N(C)C)C1` [Compound S-373, (S)—N-(5-((4-(1,7-dimethyl-1H-indol-3-yl)-5-(trifluoromethyl)pyrimidin-2-yl)amino)-2-(3-(dimethylamino)pyrrolidin-1-yl)phenyl)acetamide], the IC50 in the assay on H1975 cells (Homo sapiens, NCI-H1975, 72 h) amounted to 461 nM; with KM12-luc cells (KM12-Luc, 72 h), 21.1 nM.

As for `CCN(CCN(C)C)c1cc(F)c(Nc2nc(-c3cn(C)c4ccccc34)c3cc[nH]c3n2)cc1NC(C)=O` [Compound 201, N-(2-((2-(dimethylamino)ethyl)(ethyl)amino)-4-fluoro-5-((4-(1-methyl-1H-indol-3-yl)-7H-pyrrolo[2,3-d]pyrimidin-2-yl)amino)phenyl)acetamide], the IC50 with H1975 cells (Homo sapiens, NCI-H1975, 72 h) amounted to 1100 nM; with KM12-luc cells (KM12-Luc, 72 h) it was 444 nM.

For the origin of these results see patent US20250136576A1, “Heterocyclic Compounds and Uses Thereof” (ACEA Therapeutics, Inc., priority 2021, published 2025).
